Results: the supplement of paper PMC10307832

Experiments:
Assay in all cases: relative viability (nuclei count vs DMSO), 5 days (fraction); higher = more cells survive
Carfilzomib + AZD7762 = compound: CC(C)C[C@H](NC(=O)[C@H](CCc1ccccc1)NC(=O)CN1CCOCC1)C(=O)N[C@@H](Cc1ccccc1)C(=O)N[C@@H](CC(C)C)C(=O)[C@@]1(C)CO1 [Carfilzomib] + NC(=O)Nc1cc(-c2cccc(F)c2)sc1C(=O)N[C@H]1CCCNC1 [AZD7762] (partner 0.2 µM)
Outline: (§1)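 Nuclei were stained with Hoechst during a one-step fixation (final 0.05% Triton X-100, 1% formaldehyde, 1 ug/ml Hoechst) carried out 5 days after dosing, then counted on 4× images. The cells, lung cancer lines in 1536-well plates, had been dosed by pin tool the day after seeding with one drug alone or a fixed anchor-drug dose plus five library-drug doses (not always all listed) in √10 steps. Relative viability is the nuclei count in treated wells divided by that in vehicle wells, and each value is the median of duplicate plates.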

Crizotinib + Pictilisib = compound: C[C@@H](Oc1cc(-c2cnn(C3CCNCC3)c2)cnc1N)c1c(Cl)ccc(F)c1Cl [Crizotinib] + CS(=O)(=O)N1CCN(Cc2cc3nc(-c4cccc5[nH]ncc45)nc(N4CCOCC4)c3s2)CC1 [Pictilisib] (partner 1 µM)
Outline: as §1

Carfilzomib + Foretinib = compound: CC(C)C[C@H](NC(=O)[C@H](CCc1ccccc1)NC(=O)CN1CCOCC1)C(=O)N[C@@H](Cc1ccccc1)C(=O)N[C@@H](CC(C)C)C(=O)[C@@]1(C)CO1 [Carfilzomib] + COc1cc2c(Oc3ccc(NC(=O)C4(C(=O)Nc5ccc(F)cc5)CC4)cc3F)ccnc2cc1OCCCN1CCOCC1 [Foretinib] (partner 0.25 µM)
Outline: as §1

Carfilzomib + Trametinib = compound: CC(C)C[C@H](NC(=O)[C@H](CCc1ccccc1)NC(=O)CN1CCOCC1)C(=O)N[C@@H](Cc1ccccc1)C(=O)N[C@@H](CC(C)C)C(=O)[C@@]1(C)CO1 [Carfilzomib] + CC(=O)Nc1cccc(-n2c(=O)n(C3CC3)c(=O)c3c(Nc4ccc(I)cc4F)n(C)c(=O)c(C)c32)c1 [Trametinib] (partner 0.02 µM)
Outline: as §1

Cell Line: NCI-H2347
- relative viability (Carfilzomib + AZD7762; first compound 0.001 µM): 0.696
- relative viability (Carfilzomib + AZD7762; first compound 0.003162 µM): 0.814
- relative viability (Carfilzomib + AZD7762; first compound 0.01 µM): 0.642
- relative viability (Carfilzomib + AZD7762; first compound 0.03162 µM): 0.229
- relative viability (Carfilzomib + AZD7762; first compound 0.1 µM): 0.289
- relative viability (Crizotinib + Pictilisib; first compound 0.01 µM): 0.624
- relative viability (Crizotinib + Pictilisib; first compound 0.03162 µM): 0.69
- relative viability (Crizotinib + Pictilisib; first compound 0.1 µM): 0.551
- relative viability (Crizotinib + Pictilisib; first compound 0.3162 µM): 0.731
- relative viability (Crizotinib + Pictilisib; first compound 1 µM): 1.05
- relative viability (Carfilzomib + Foretinib; first compound 0.001 µM): 0.958
- relative viability (Carfilzomib + Foretinib; first compound 0.003162 µM): 0.909
- relative viability (Carfilzomib + Foretinib; first compound 0.01 µM): 1.43
- relative viability (Carfilzomib + Foretinib; first compound 0.03162 µM): 0.698
- relative viability (Carfilzomib + Foretinib; first compound 0.1 µM): 0.181
- relative viability (Carfilzomib + Trametinib; first compound 0.001 µM): 0.269
- relative viability (Carfilzomib + Trametinib; first compound 0.003162 µM): 0.23
- relative viability (Carfilzomib + Trametinib; first compound 0.01 µM): 0.298
- relative viability (Carfilzomib + Trametinib; first compound 0.03162 µM): 0.292
- relative viability (Carfilzomib + Trametinib; first compound 0.1 µM): 0.262

Cell Line: NCI-H2405
- relative viability (Carfilzomib + AZD7762; first compound 0.001 µM): 0.717
- relative viability (Carfilzomib + AZD7762; first compound 0.003162 µM): 0.783
- relative viability (Carfilzomib + AZD7762; first compound 0.01 µM): 0.932
- relative viability (Carfilzomib + AZD7762; first compound 0.03162 µM): 0.689
- relative viability (Carfilzomib + AZD7762; first compound 0.1 µM): 0.262
- relative viability (Crizotinib + Pictilisib; first compound 0.01 µM): 0.457
- relative viability (Crizotinib + Pictilisib; first compound 0.03162 µM): 0.526
- relative viability (Crizotinib + Pictilisib; first compound 0.1 µM): 0.419
- relative viability (Crizotinib + Pictilisib; first compound 0.3162 µM): 0.37
- relative viability (Crizotinib + Pictilisib; first compound 1 µM): 0.356
- relative viability (Carfilzomib + Foretinib; first compound 0.003162 µM): 1.06
- relative viability (Carfilzomib + Foretinib; first compound 0.01 µM): 1.07
- relative viability (Carfilzomib + Foretinib; first compound 0.03162 µM): 1.07
- relative viability (Carfilzomib + Foretinib; first compound 0.1 µM): 0.305
- relative viability (Carfilzomib + Trametinib; first compound 0.001 µM): 0.758
- relative viability (Carfilzomib + Trametinib; first compound 0.003162 µM): 0.748
- relative viability (Carfilzomib + Trametinib; first compound 0.01 µM): 0.686
- relative viability (Carfilzomib + Trametinib; first compound 0.03162 µM): 0.536
- relative viability (Carfilzomib + Trametinib; first compound 0.1 µM): 0.236

Cell Line: NCI-H3122
- relative viability (Carfilzomib + AZD7762; first compound 0.001 µM): 0.948
- relative viability (Carfilzomib + AZD7762; first compound 0.003162 µM): 1.05
- relative viability (Carfilzomib + AZD7762; first compound 0.01 µM): 1
- relative viability (Carfilzomib + AZD7762; first compound 0.03162 µM): 0.895
- relative viability (Carfilzomib + AZD7762; first compound 0.1 µM): 0.588
- relative viability (Crizotinib + Pictilisib; first compound 0.01 µM): 0.533
- relative viability (Crizotinib + Pictilisib; first compound 0.03162 µM): 0.6
- relative viability (Crizotinib + Pictilisib; first compound 0.1 µM): 0.609
- relative viability (Crizotinib + Pictilisib; first compound 0.3162 µM): 0.434
- relative viability (Crizotinib + Pictilisib; first compound 1 µM): 0.27
- relative viability (Carfilzomib + Foretinib; first compound 0.001 µM): 0.948
- relative viability (Carfilzomib + Foretinib; first compound 0.003162 µM): 0.992
- relative viability (Carfilzomib + Foretinib; first compound 0.01 µM): 0.92
- relative viability (Carfilzomib + Foretinib; first compound 0.03162 µM): 0.781
- relative viability (Carfilzomib + Foretinib; first compound 0.1 µM): 0.318
- relative viability (Carfilzomib + Trametinib; first compound 0.001 µM): 0.196
- relative viability (Carfilzomib + Trametinib; first compound 0.003162 µM): 0.234
- relative viability (Carfilzomib + Trametinib; first compound 0.01 µM): 0.255
- relative viability (Carfilzomib + Trametinib; first compound 0.03162 µM): 0.244
- relative viability (Carfilzomib + Trametinib; first compound 0.1 µM): 0.239

Cell Line: PC-3 [JPC-3]
- relative viability (Carfilzomib + AZD7762; first compound 0.001 µM): 0.882
- relative viability (Carfilzomib + AZD7762; first compound 0.003162 µM): 0.762
- relative viability (Carfilzomib + AZD7762; first compound 0.01 µM): 0.993
- relative viability (Carfilzomib + AZD7762; first compound 0.03162 µM): 0.512
- relative viability (Carfilzomib + AZD7762; first compound 0.1 µM): 0.248
- relative viability (Crizotinib + Pictilisib; first compound 0.01 µM): 0.687
- relative viability (Crizotinib + Pictilisib; first compound 0.03162 µM): 0.804
- relative viability (Crizotinib + Pictilisib; first compound 0.1 µM): 0.722
- relative viability (Crizotinib + Pictilisib; first compound 0.3162 µM): 0.705
- relative viability (Crizotinib + Pictilisib; first compound 1 µM): 0.709
- relative viability (Carfilzomib + Foretinib; first compound 0.001 µM): 1.02
- relative viability (Carfilzomib + Foretinib; first compound 0.003162 µM): 1.01
- relative viability (Carfilzomib + Foretinib; first compound 0.01 µM): 1.05
- relative viability (Carfilzomib + Foretinib; first compound 0.03162 µM): 0.889
- relative viability (Carfilzomib + Foretinib; first compound 0.1 µM): 0.279
- relative viability (Carfilzomib + Trametinib; first compound 0.001 µM): 0.77
- relative viability (Carfilzomib + Trametinib; first compound 0.003162 µM): 0.679
- relative viability (Carfilzomib + Trametinib; first compound 0.01 µM): 0.706
- relative viability (Carfilzomib + Trametinib; first compound 0.03162 µM): 0.552
- relative viability (Carfilzomib + Trametinib; first compound 0.1 µM): 0.279

Cell Line: PC-14
- relative viability (Carfilzomib + AZD7762; first compound 0.001 µM): 0.377
- relative viability (Carfilzomib + AZD7762; first compound 0.003162 µM): 0.368
- relative viability (Carfilzomib + AZD7762; first compound 0.01 µM): 0.392
- relative viability (Carfilzomib + AZD7762; first compound 0.03162 µM): 0.158
- relative viability (Carfilzomib + AZD7762; first compound 0.1 µM): 0.0776
- relative viability (Crizotinib + Pictilisib; first compound 0.01 µM): 0.772
- relative viability (Crizotinib + Pictilisib; first compound 0.03162 µM): 0.775
- relative viability (Crizotinib + Pictilisib; first compound 0.1 µM): 0.708
- relative viability (Crizotinib + Pictilisib; first compound 0.3162 µM): 0.8
- relative viability (Carfilzomib + Foretinib; first compound 0.001 µM): 0.979
- relative viability (Carfilzomib + Foretinib; first compound 0.003162 µM): 0.958
- relative viability (Carfilzomib + Foretinib; first compound 0.01 µM): 0.996
- relative viability (Carfilzomib + Foretinib; first compound 0.03162 µM): 0.826
- relative viability (Carfilzomib + Foretinib; first compound 0.1 µM): 0.081
- relative viability (Carfilzomib + Trametinib; first compound 0.001 µM): 0.749
- relative viability (Carfilzomib + Trametinib; first compound 0.003162 µM): 0.672
- relative viability (Carfilzomib + Trametinib; first compound 0.01 µM): 0.588
- relative viability (Carfilzomib + Trametinib; first compound 0.03162 µM): 0.0506
- relative viability (Carfilzomib + Trametinib; first compound 0.1 µM): 0.0646

Cell Line: RERF-LC-KJ
- relative viability (Carfilzomib + AZD7762; first compound 0.001 µM): 0.827
- relative viability (Carfilzomib + AZD7762; first compound 0.003162 µM): 1.11
- relative viability (Carfilzomib + AZD7762; first compound 0.01 µM): 1.24
- relative viability (Carfilzomib + AZD7762; first compound 0.03162 µM): 0.927
- relative viability (Carfilzomib + AZD7762; first compound 0.1 µM): 0.309
- relative viability (Crizotinib + Pictilisib; first compound 0.01 µM): 0.502
- relative viability (Crizotinib + Pictilisib; first compound 0.03162 µM): 0.628
- relative viability (Crizotinib + Pictilisib; first compound 0.1 µM): 0.476
- relative viability (Crizotinib + Pictilisib; first compound 0.3162 µM): 0.561
- relative viability (Crizotinib + Pictilisib; first compound 1 µM): 0.621
- relative viability (Carfilzomib + Foretinib; first compound 0.001 µM): 0.873
- relative viability (Carfilzomib + Foretinib; first compound 0.003162 µM): 0.86
- relative viability (Carfilzomib + Foretinib; first compound 0.01 µM): 0.886
- relative viability (Carfilzomib + Foretinib; first compound 0.03162 µM): 0.794
- relative viability (Carfilzomib + Foretinib; first compound 0.1 µM): 0.409
- relative viability (Carfilzomib + Trametinib; first compound 0.001 µM): 0.864
- relative viability (Carfilzomib + Trametinib; first compound 0.003162 µM): 0.908
- relative viability (Carfilzomib + Trametinib; first compound 0.01 µM): 0.941
- relative viability (Carfilzomib + Trametinib; first compound 0.03162 µM): 0.511
- relative viability (Carfilzomib + Trametinib; first compound 0.1 µM): 0.211
